Results reported in PubChem BioAssay AID434987 (Southern Research Specialized Biocontainment Screening …, 2010).
Active and inactive are the calls of the source. No rule for the calls is given here.

System: M. tuberculosis H37Rv growth inhibition with meropenem
Assay: dose response, H37Rv, with and without meropenem (AID 434987);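 also: growth over 7 days at 37 °C before Alamar Blue read on day 9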
[1] = M. tuberculosis H37Rv growth inhibition, measured here: IC50 without meropenem
[2] = M. tuberculosis H37Rv growth inhibition, measured here: IC90 without meropenem
[3] = measured here: IC90 with meropenem

Row | SMILES | IC50 | IC50 [1] [µM] | IC90 [2] [µM] | IC90 [3] [µM]
1 | COc1ccc(NC(=O)c2cc(C)nc3ccccc23)c(OC)c1 | 11.7 µM | 31.6 | 69.1 | 12.9
2 | CC1(C)C[C@@H]1C(=O)N/C(=C\CCCCSC[C@H](N)C(=O)O)C(=O)O | > 100 µM (inactive) | > 100 | > 100 | > 100
3 | CSc1nc2cc3c(cc2n1C(=O)c1ccc(C)cc1)OCCO3 | 5.15 µM | > 100 | > 100 | > 100
4 | CC(C)(C)Nc1nc(Nc2ccc([N+](=O)[O-])cc2)nc(NC(C)(C)C)n1 | > 100 µM (inactive) | > 100 | > 100 | > 100
5 | NNC(=S)NC1CC2CC1C1C=CCC21 (stereo unspecified) | 12.4 µM (inactive) | 21.1 | 23.9 | 13.5
6 | C=CCn1cc(C(=O)NCCCOC)c(=O)c2cc(S(=O)(=O)N(CC)CC)ccc21 | 99.9 µM (inactive) | > 100 | > 100 | > 100
7 | Cc1ccccc1/C=N\NC(=O)c1csnn1 | 21.6 µM | > 100 | > 100 | > 100
8 | Cc1nn(-c2ccccc2)c(Cl)c1CN(C(=O)CCl)c1cccc2ccccc12 | 18.7 µM (inactive) | 33 | 53.4 | 48.2
9 | COc1cccc(/C=N/NC(=O)CSCC(=O)Nc2ccccc2)c1O | 5.41 µM | > 100 | > 100 | > 100
10 | Fc1ccc(NC(=S)NCc2cccs2)cc1 | > 100 µM (inactive) | > 100 | > 100 | > 100
11 | CN1C/C(=N\S(=O)(=O)c2ccccc2)N(C)C1=O | 13 µM (inactive) | 23.6 | 46.7 | 33.7
12 | CCc1cc2c(=O)oc(-c3ccccc3F)nc2s1 | > 100 µM (inactive) | > 100 | > 100 | > 100
13 | CCOC(=O)c1ccc(N2CN(C3CCCCC3)CNC2=S)cc1 | 35.4 µM | > 100 | > 100 | > 100
14 | COCCNC(=S)N/N=C1\CC(C)CC(C)(C)C1 (stereo unspecified) | 24.5 µM (inactive) | 32.4 | 41.1 | 27.5
15 | Cc1cc(F)ccc1NCC(=O)Nc1ccc(Br)cc1C | 94.2 µM (inactive) | 98.2 | > 100 | > 100
16 | CCOc1ccc2nc(NC(=O)c3cnccn3)sc2c1 | 4.07 µM | > 100 | > 100 | > 100
17 | Cc1cc(C2C(=O)c3ccccc3C2=O)c(C)c(C)c1C | 3.79 µM | 34 | > 100 | 16.4
18 | O=C(c1ccccc1)N1CCC(CC2CC(c3cccc(Br)c3)=NO2)(C(=O)NCC2CCCCC2)CC1 (stereo unspecified) | 46.8 µM (inactive) | > 100 | > 100 | > 100
19 | CC(C)c1ccc(/C=C/C(=O)NC2CCCCC2)cc1 | 38.2 µM | > 100 | > 100 | > 100
20 | Clc1ccc(/C=N/NC2=Nc3cccc4cccc2c34)cc1 | > 100 µM (inactive) | > 100 | > 100 | > 100
21 | CC(=O)c1ccc(-n2c(C)ccc2-c2ccccc2)cc1 | 20.2 µM | 61.3 | 88.3 | > 100
22 | COC(=O)C1=C(C)NC(=O)/C1=C\c1cc(C)n(-c2c(C)cccc2C)c1C | 88 µM (inactive) | > 100 | > 100 | 99.8
23 | O=C(Nc1cccc(C(F)(F)F)c1)N1CCC(c2nc(-c3ccc(F)cc3)no2)CC1 | > 100 µM (inactive) | > 100 | > 100 | > 100
24 | O=C(Nc1ccccc1Cl)c1csc(-c2cccnc2)n1 | 23.9 µM | 82.3 | > 100 | > 100
